Key:
[1] = tested on: Phytophthora infestans; assay type: in vivo; conditions: 50 ppm; control value, tomato late blight
[2] = tested on: Botrytis cinerae; test: Fungicidal activity against cucumber gray mold rot (CGM) disease; assay type: in vivo; conditions: 50 ppm, control value
[3] = tested on: Puccinia recondita; test: Fungicidal activity against wheat leaf rust (WLR) disease; assay type: in vivo; conditions: for C. V. (%) WLR: 50 ppm, control value, wheat leaf rust; for C. V. (%), Fungicidal Activities against WLB at 10 ppm: Table 8 (Test Example 5)
[4] = tested on: Pyricularia oryzae Carvara KA301; assay type: in vivo; conditions: for C. V. (%) Fungicidal Activities against RCB at 10 ppm / C. V. (%) Fungicidal Activities against RCB at 10 ppm (TABLE 6): sprayed on Nakdong rice plant, control value from lesion area; for C. V. (%) RCB: 50 ppm, control value, rice blast
[5] = tested on: Rhizoctonia solani AG-1; test: Fungicidal activity against rice sheath blight (RSB) disease; conditions: 50 ppm, control value
Procedure: 50 ml of the resulting solution was sprayed on leaves of a host plant. The plant was kept at room temperature for 24 hours to let the solvent evaporate, and then, a pathogenic fungus was inoculated thereonto. The plant was held in a humidity chamber for 24 hours, transferred to an plant growth room kept at 20 to 27° C. and a relative humidity of 60 to 80% and kept to induce disease. Subsequently, the lesion area(L.A.) attacked by the pathogenic fungus was measured according to a method of Cho(Cho, K. Y., Search Report by Korea Research Institute of Chemical Technology (1989))”. This procedure was repeated twice for each test. 10% Acetone solution containing 250 ppm of Tween-20 was used as a control.
The fungicidal activity of the compound of the present invention is repressed by a control value (C.V.) calculated as; [formula]
Rhizoctonia solani AG-1 was cultured on a PDA medium(potato 200 g, dextrose 20 g, agar 20 g and distilled water 1 l) for 3 days and the agar disc (diameter 0.6 cm) was inoculated and cultured on sterilized wheat bran medium in a 1 l bottle at 26 to 28° C. for 7 days. A mycelial mass was ground using a homogenizer, inoculated uniformly on soil of a pot wherein a Nakdong rice plant having 2 or 3 leaves and an height of 5 cm grew, and kept in humidity polyvinyl chamber for 5 days to induce RSB. L.A. on a leaf sheath was measured to calculate an C.V.

[6] = tested on: Erysiphae graminis; test: Fungicidal activity against barley powdery mildew (BPM) disease; assay type: in vivo; conditions: for C. V. (%), Fungicidal activities against TLB at 10 ppm: Table 9 (Test Example 6); for C. V. (%) BPM: 50 ppm, control value, barley powdery mildew

| Compound | C. V. (%) TLB [1] | C. V. (%) CGM [2] | C. V. (%) WLR [3] | C. V. (%) Fungicidal Activities against RCB at 10 ppm [4] | C. V. (%) Fungicidal Activities against RCB at 10 ppm (TABLE 6) [4] | C. V. (%) RCB [4] | C. V. (%) RSB [5] | C. V. (%), Fungicidal activities against TLB at 10 ppm [6] | C. V. (%) BPM [6] | C. V. (%), Fungicidal Activities against WLB at 10 ppm [3] |
| --- | --- | --- | --- | --- | --- | --- | --- | --- | --- | --- |
| CON=C(C(=O)OC)c1ccccc1COc1cccc(OC(F)=C(c2ccc(Cl)cc2)C(F)(F)F)c1 [Compound 90] | 0% | 25% | 100% | 93% | 93% | 90% | 30% | 97% | 99% | – |
| CNC(=O)C(=NOC)c1ccccc1COc1cccc(OC(F)=C(c2ccc(Cl)cc2)C(F)(F)F)c1 [Compound 91] | 64% | 17% | 100% | 99% | 99% | 99% | 90% | 100% | 100% | 100% |
| COC=C(C(=O)OC)c1ccccc1COc1cccc(OC(F)=C(c2cccc(F)c2)C(F)(F)F)c1 [Compound 92] | 81% | 16% | 100% | – | – | 93% | 55% | 99% | 100% | 100% |
| CNC(=O)C(=COC)c1ccccc1COc1cccc(OC(F)=C(c2cccc(F)c2)C(F)(F)F)c1 [Compound 93] | 0% | 0% | 73% | – | – | 0% | 5% | – | 0% | – |
| CON=C(C(=O)OC)c1ccccc1COc1cccc(OC(F)=C(c2cccc(F)c2)C(F)(F)F)c1 [Compound 94] | 40% | 0% | 100% | – | – | 41% | 60% | 99% | 100% | 95% |
| CNC(=O)C(=NOC)c1ccccc1COc1cccc(OC(F)=C(c2cccc(F)c2)C(F)(F)F)c1 [Compound 95] | 0% | 0% | 100% | 100% | 100% | 100% | 72% | 100% | 100% | 100% |
| COC=C(C(=O)OC)c1ccccc1COc1cccc(OC(F)=C(c2ccc(F)cc2)C(F)(F)F)c1 [Compound 96] | 62% | 33% | 100% | 95% | 95% | 90% | 67% | 100% | 100% | 97% |
| CNC(=O)C(=COC)c1ccccc1COc1cccc(OC(F)=C(c2ccc(F)cc2)C(F)(F)F)c1 [Compound 97] | 22% | 11% | 83% | – | – | 0% | 10% | – | 33% | – |
| CON=C(C(=O)OC)c1ccccc1COc1cccc(OC(F)=C(c2ccc(F)cc2)C(F)(F)F)c1 [Compound 98] | 25% | 0% | 100% | – | – | 33% | 65% | 98% | 100% | 96% |
| CNC(=O)C(=NOC)c1ccccc1COc1cccc(OC(F)=C(c2ccc(F)cc2)C(F)(F)F)c1 [Compound 99] | 48% | 21% | 100% | 95% | 95% | 80% | 90% | 100% | 100% | 100% |
| CNC(=O)C(=COC)c1ccccc1COc1cccc(OC(F)=C(c2ccc(Br)cc2)C(F)(F)F)c1 [Compound 101] | 3% | 21% | 73% | – | – | 0% | 10% | – | 0% | – |
| COC=C(C(=O)OC)c1ccccc1COc1cccc(OC(F)=C(c2cc(Cl)cc(Cl)c2)C(F)(F)F)c1 [Compound 102] | 3% | 0% | 96% | – | – | 0% | 45% | 98% | 100% | – |
| CON=C(C(=O)OC)c1ccccc1COc1cccc(OC(F)=C(c2cc(Cl)cc(Cl)c2)C(F)(F)F)c1 [Compound 103] | 3% | 0% | 100% | – | – | 0% | 60% | 100% | 100% | 96% |
| CNC(=O)C(=NOC)c1ccccc1COc1cccc(OC(F)=C(c2cc(Cl)cc(Cl)c2)C(F)(F)F)c1 [Compound 104] | 0% | 0% | 100% | 98% | 98% | 100% | 50% | 100% | 100% | 100% |
| COC=C(C(=O)OC)c1ccccc1COc1cccc(OC(F)=C(c2cccs2)C(F)(F)F)c1 [Compound 105] | 0% | 0% | 100% | – | – | 96% | 78% | – | 70% | 96% |
| CCCCCCC(=C(F)Oc1cccc(OCc2ccccc2C(=COC)C(=O)OC)c1)C(F)(F)F [Compound 106] | 0% | 0% | 98% | – | – | 0% | 45% | 100% | 100% | 91% |
| CCCCCCC(=C(F)Oc1cccc(OCc2ccccc2C(=COC)C(=O)NC)c1)C(F)(F)F [Compound 107] | 3% | 21% | 80% | – | – | 0% | 10% | – | 41% | – |
